According to patent publication US6825193B2, “Citric acid salt of a therapeutic compound and pharmaceutical compositions thereof” (Pfizer Inc., priority 2001, dated 2004):
“Also recorded” adds a separate entry of the source. Counter-ions that a name gives are not always drawn.

Tests used:
Format in all cases: physicochemical
[1] = Hygroscopicity on exposure to 90% relative humidity in a moisture chamber
[2] = Compatibility with drug product formulation excipients
[3] = Solid state stability (light, elevated temperature, high humidity challenges); settings: elevated temperatures
[4] = Aqueous solubility and native pH in aqueous solution

hygroscopicity (in words) [1]: only slightly hygroscopic
hygroscopicity ([1]; at 90% relative humidity): approximately 1.27%
hygroscopicity ([1]; on exposure to 90% relative humidity in a moisture chamber): approximately 1.27 % wt/wt
aqueous solubility (in words) [4]: high aqueous solubility
native pH in aqueous solution ([4]; aqueous solution at solubility 1.3 mg/ml): 3.37
solubility ([4]; water, native pH 3.37): 1300 µg/mL
Compound: CN1CCN(c2ccccc2/C=C2\SCCN(c3ccc(Cl)c(Cl)c3)C2=O)CC1 [citrate salt, 4-(3,4-dichlorophenyl)-2-[2-(4-methylpiperazin-1-yl)-benzylidene]-thiomorpholin-3-one]
inertness / compatibility towards common formulation excipients (in words) [2]: relative inertness towards common excipients; also recorded: superior to previously known salts
solid state stability (in words) [3]: excellent solid state stability; also recorded: superior to previously known salts
